{"source": "patent US12214008B2", "about": "“Protein interfaces” (SyntheX, Inc., priority 2016, dated 2025)", "key": {"RAD51": {"target": "T1, RAD51 (Homo sapiens, UniProt Q06609)", "T1 sequence (Q06609 1-339)": "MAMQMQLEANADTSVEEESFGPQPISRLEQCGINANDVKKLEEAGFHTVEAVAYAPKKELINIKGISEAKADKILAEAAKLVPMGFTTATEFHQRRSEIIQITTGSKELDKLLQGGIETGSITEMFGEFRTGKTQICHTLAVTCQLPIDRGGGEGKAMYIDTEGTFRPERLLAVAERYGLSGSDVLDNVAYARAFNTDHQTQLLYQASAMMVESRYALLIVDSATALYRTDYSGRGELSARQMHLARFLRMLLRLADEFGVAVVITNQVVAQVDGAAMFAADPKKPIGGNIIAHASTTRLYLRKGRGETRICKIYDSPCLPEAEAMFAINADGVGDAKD", "assay": "microscale thermophoresis", "assay_type": "binding", "method": "To test the interaction between calcium binding and peptide binding to RAD51, the Kds of active (Compound 5, 10) peptides for RAD51 were tested by a microscale thermophoresis assay, and the Kd of compound 5 was additionally performed in the presence of 1 mM calcium.\nMicroscale thermophoresis was performed as previously described (see, for e.g. Jerabek-Willemsen, M., Wienken, C. J., Braun, D., Baaske, P. & Duhr, S. Molecular interaction studies using microscale thermophoresis. Assay Drug Dev. Technol. 9, 342-353 (2011)). The affinity of the Compound was measured using the Monolith NT.115 from Nanotemper Technologies. Rad51 was fluorescently labelled according to the manufacturer's protocol and the labelled protein used for each assay was about 500 nM. A solution of unlabelled peptide was diluted for appropriate serial concentration gradient. The samples were loaded into silica capillaries (Polymicro Technologies). Measurements were performed at room temperature in buffer containing PBS, 0.1% Tween 20, 0.5 mM ATP, 2.5 uM ssDNA, with 1 mM CaCl2 (when mentioned). Measurements were done using 12% LED power and 60% MST power. The assays were repeated three times for each affinity measurement. Data analyses were performed using Nanotemper Analysis software and OriginPro 8.0 software provided by the manufacturer."}, "A549 cells": {"system": "A549 cells", "assay": "xCELLigence cell death assay", "assay_type": "cell-based", "conditions": "FIG. 15", "method": "(§1) To optimize cellular activity, compounds were tested in xCELLigence cell death assays against various cell lines. An example of the workflow used is shown using A549 cells and compound 10 in FIGS. 15 and 16. […] Data from xCELLigence traces at different compound concentrations from FIG. 15 was then used to generate a dose-response curve, which was then subjected to nonlinear regression using a sigmoidal dose-response model to generate IC50s and R2 values for cell death for each compound/cell line combination (FIG. 16)."}, "SSP-25 cells": {"system": "SSP-25 cells", "assay": "xCELLigence cell death assay", "assay_type": "cell-based", "conditions": "10 μM compound 10 alone", "method": "Further, singly-dosed cells continued to recover, which indicated reduced general cytotoxicity of the compound in the media or the lysed cells.\nas §1\nTo further investigate the hypothesis that peptide binding to RAD51 in cells causes cell death via increases in intracellular free calcium levels, compound 10 alone and in combination with two different intracellular calcium chelators (1,2-Bis(2-aminophenoxy) ethane-N,N,N′,N′-tetraacetic acid tetrakis(acetoxymethyl ester) aka “BAPTA-AM”, and ammoniated ruthenium oxychloride aka “ruthenium red”) was tested in an xCELLigence™ cell death assay as in Example 3. The intracellular calcium chelators alone were also evaluated on the cells."}, "A549 xenograft": {"system": "A549 xenograft", "assay": "athymic mouse A549 xenograft model", "assay_type": "in vivo, mice", "method": "Female athymic nu/nu mice (6-8 weeks old) were purchased from Simonsen labs (n=12) and were housed at the Murigenics vivarium in Vallejo. The mice were acclimated to the setting of the vivarium for 5 days and maintained on a standard chow diet; 12:12 dark/light cycle; and group housed (3 mice per cage) in hepa-filtered cages. After acclimation, each mouse was injected subcutaneously (lower left abdominal flank) with 5×10^6 A549 (ATCC: CCL-185) cells mixed with 1:1 (v/v) with Matrigel solution. When the tumors reached a volume of ˜100 mm3, the mice were divided into separate treatment groups for the desired treatments. Experiments using both intra-tumoral (IT) and intraperitoneal (IP) administration were performed and the data are reported in FIG. 19.\nMice prepared as described above were divided into 4 groups: • Group 1: were not treated with anything (n=3) • Group 2: received an intra-tumoral injection of 50 microliters of Phosphate Buffered Saline (mock) (n=3) • Group 3: received an intra-tumoral injection of 50 microliters of 10 mg/ml compound 10 in Phosphate Buffered Saline (n=3) • Group 4: received an intra-tumoral injection of 50 microliters of 20 mg/ml compound 10 in Phosphate Buffered Saline (n=3)\nThe 50 microliter injections were carried out with a (30 g needle). The injections were administered on day zero and then again on day 3. The length (L) and the width (W) of the tumor mass was measured with a Vernier caliper and the tumor volume (V) was calculated as V=(L×W^2)/2. The relative tumor volume of each tumor mass on each measurement day was normalized against the initial volume of the same mass on day zero right before initiation of injections. […]\nThe injections were carried out with a 30 g needle. […] The length (L) and the width (W) of the tumor mass was measured with a Vernier caliper and the tumor volume (V) was calculated as V=(L×W^2)/2. […]"}}, "data": [{"smiles": "CSCC[C@@H](NC(=O)[C@@H](CC(C)C)NC(C)=O)C(=O)N[C@H](CCCNC(=N)N)C(=O)N[C@H](CO)C(=O)N[C@@H](C(=O)N[C@H](CCCNC(=N)N)C(=O)N[C@H](CC(C)C)C(=O)N[C@H](CCCNC(=N)N)C(=O)N[C@@H](C(=O)NCC(=O)N[C@H](CC(C)C)C(=O)N[C@H](CCCNC(=N)N)C(=O)N[C@H](CCCCN)C(=O)N[C@H](CCCNC(=N)N)C(=O)N[C@H](CCCNC(=N)N)C(=O)N[C@H](CCCNC(=N)N)C(=O)N[C@H](CCCNC(=N)N)C(=O)N[C@H](CCCNC(=N)N)C(=O)N[C@H](CCCNC(=N)N)C(=O)N[C@H](CCCNC(=N)N)C(N)=O)C(C)C)C(C)C", "note": "[Compound 10, Ac-lmrsvrlrvGlrkrrrrrrr-NH2]", "values": [{"measurement": "Kd", "setting": "RAD51; PBS", "value": 8.55, "unit": "nM"}, {"measurement": "Kd", "setting": "RAD51; without added calcium", "value": "~8", "unit": "nM"}, {"measurement": "cell killing of A549 cells (cell index)", "setting": "A549 cells", "value": "cell killing of A549 cells"}, {"measurement": "cell death of SSP-25 cells, compound alone", "setting": "SSP-25 cells", "value": "significant cell death"}, {"measurement": "relative tumor volume, intra-tumoral dosing", "setting": "A549 xenograft; 50 microliters of 10 or 20 mg/ml intra-tumoral on day 0 and day 3, measured days 0, 3, 6", "value": "measurable decreases in tumor size as early as day 3"}, {"measurement": "relative tumor volume, intra-peritoneal dosing", "setting": "A549 xenograft; 125 microliters of 3 mg/ml intra-peritoneal on day 7, measured days 0-10", "value": "measurable decreases in tumor size as early as 3 days after injection (day 10)"}, {"measurement": "tumor volume", "setting": "A549 xenograft; FIG. 19, intratumoral and intraperitoneal", "value": "significant effects on tumor volume after only a few days of treatment"}]}]}
